We go through 30 compounds from patent publication US20060252698A1, “Compounds for inhibiting cathepsin activity” (priority 2005, published 2006).

The assay addresses T1, Human Liver Cathepsin L (Homo sapiens, UniProt P07711).
T1 construct: purchased Calbiochem 219402
Briefly: Cathepsin L inhibition assay (kinetic, Z-Phe-Arg-pNA substrate). The class given is biochemical. To be noted: Z-Phe-Arg-pNA 120 μM, enzyme 12 nM, pH 5.5, read at 410 nm. The method, then:
Cathepsin Assay Protocols:
• 1. 96-well Round or V-bottom microplates for dilutions • 2. 96-well COSTAR UV microplates for assay (COSTAR cat.#3635) • 3. Bio-Spin 6 Chromatography Columns (BIO-RAD cat.#732-6002). • 4. 12-75 mm test tubes • 5. Falcon 50 ml tubes • 6. Falcon 14 ml tubes • 7. 1.5 ml eppendorf tube • 8. ≦10 ml buffer reservoir Reagents: • 1. Enzyme: Cathepsin G, M.W.23,500, 10 μM stock. • 2. Substrate:Suc-Ala-Ala-Pro-Phe-pNA, M.W. 624.65, prep. 100 mM [62.465 mg/ml] stock. • 3. Buffer: [50 mM HEPES, 500 mM NaCl, 5 μM EDTA, pH 7.14], 5 μM DTT Instrument Settings: SpectraMax Plus • 1. Kinetic assay reading@405 nm • 2. Read interval: 30 seconds • 3. Time: 1 hour • 4. OD Min: −0.001 • 5. OD Max: 0.5 • 6. Data Mode: Absorbance • 7. e405=194.078 μM/O.D. Procedure: • 1. Add 73 μl of buffer to all wells. • 2. Add […] of buffer to (−E) controls. • 3. Add 7 μl of sample and/or DMSO for controls to appropriate wells. • 4. Prep. substrate: 100 mM (62.465 mg/ml) stock in 100% DMSO. • 5. Dilute 1:20 in buffer. 75 μl in 1.425 ml. 5 mM final. • 6. Add 20 μl of 5 mM substrate to all wells. 500 μM final. • 7. Dilute enzyme (1:50) in buffer; Add 120 μl to 5,880 μl buffer. 2×[200 nM] final. • 8. Add 100 μl of 2× [200 nM] enzyme to assigned wells, except (−E) controls. [100 nM] final. • 11. Vortex 20 seconds. Read@ 405 nM every 30 seconds for 1 hour on SpectraMax Plus • Endpoint assay reading plate@ 600 nM. Used for the detection of precipitation. Cathepsin H: Materials: • 1. 96-well Round or V-bottom microplates for dilutions • 2. 96-well COSTAR UV microplates for assay (COSTAR cat.#3635) • 3. Bio-Spin 6 Chromatography Columns (BIO-RAD cat.#732-6002) • 4. 12-75 mm test tubes • 5. Falcon 50 ml tubes • 6. Falcon 14 ml tubes • 7. 1.5 ml eppendorf tube • 8. ≧10 ml buffer reservoir Reagents: • 1. Enzyme: Cathepsin H, M.W.28,000, 9.07 μM stock. • 2. Substrate:H-Arg-pNA, M.W. 367.2, prep. 50 mM [18.36 mg/ml] stock. • 3. Buffer: [100 mM NaP04, 1 mM EDTA, 1 mM DTT, pH 6.5 Instrument Settings: SpectraMax Plus • 1. Kinetic assay reading@410 nM • 2. Read interval: 30 seconds • 3. Time: 1 hour • 4. OD Min: −0.001 • 5. OD Max: 0.05 • 6. Data Mode: Absorbance • 7. e410=188.415 μM/O.D. Km=108±5 μM Procedure: • 1. Prep. substrate: 50 mM (18.36 mg/ml) stock in 100% DMSO. • 2. Add 73 μl of buffer to all wells. • 3. Add 7 μl of sample to appropriate wells: a.) 100% DMSO for (+E) & (−E) controls. • 4. Add 100 μl of buffer to (−E) controls. • 5. Dilute substrate (1:20) in buffer; Add 140 μl to 2.66 ml buffer while vortexing. [2.5 mM] final. • 6. Add 20 μl of substrate to all wells. Vortex 3-5 seconds. [250 μM] final. • 7. Dilute enzyme (1:64.8) in buffer; Add 179 μl to 11.418 ml buffer. 2× [140 nM] final. • 8. Add 100 μl of 2× [140 nM] enzyme to assigned wells, except (−E) controls. [70 nM] final. • 9. Read@410 nM every 30 seconds for 1 hour on SpectraMax Plus Cathepsin L: Materials: • 1. 96-well Round or V-bottom microplates for dilutions • 2. 96-well COSTAR UV microplates for assay (COSTAR cat.#3635) • 3. Falcon 50 ml tubes • 4. Falcon 14 ml tubes • 5. 1.5 ml eppendorf tube • 6. 10 ml buffer reservoir Reagents: • 1. Enzyme: Calbiochem #219402: Cathepsin L, M.W.29,000, 11.62 μM stock. Lot#B45683 • 2. Substrate: Bachem #L-1242: Z-Phe-Arg-pNA, M.W. 612.09, prep. 4.8 mM [2.938 mg/ml] stock in 100% DMSO. • 3. Buffer: [100 mM NaP04, 1 mM EDTA, pH 5.5] Supplement buffer w/1 mM DTT, day of assay. Experiment #1: • Instrument settings: SpectraMax Plus microtiter plate reader (Molecular Devices, Sunnydale, Calif.) • 1. Kinetic assay reading@410 nM • 2. Read interval: 30 seconds • 3. Time: 1 hour • 4. OD Min: −0.001 • 5. OD Max: 0.05 • 6. Data Mode: Absorbance • 7. ε410=161.311 μM/O.D. Km=56±8 μM Procedure: • 1. Add 88 μl of buffer to all wells. • 2. Add 7 μl of sample or 100% DMSO to appropriate wells. • 3. Add 100 μl of buffer to (−E) controls. • 5. Add 5 μ 4.8 mM] substrate to all wells. [120 μM] final. • 6. Vortex 3-5 seconds. • 7. Dilute enzyme (1:483.87) in buffer; Add 24.8 μl to 12,000 μl buffer. 2×[24 nM] final. • 8. […]

T1 sequence (P07711 114-288 limits assumed): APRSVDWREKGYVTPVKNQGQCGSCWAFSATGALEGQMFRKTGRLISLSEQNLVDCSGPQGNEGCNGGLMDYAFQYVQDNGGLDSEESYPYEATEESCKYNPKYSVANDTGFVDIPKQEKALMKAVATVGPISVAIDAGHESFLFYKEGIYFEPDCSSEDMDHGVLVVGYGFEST
T1 sequence (P07711 292-333 limits assumed): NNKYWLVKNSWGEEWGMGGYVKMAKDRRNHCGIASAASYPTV

`CC1([C@H](NC(=O)NC2(CS(=O)(=O)C(C)(C)C)CCCCC2)C(=O)N2C[C@H]3[C@@H]([C@H]2C(=O)N[C@@H](CCC2CC2)C(=O)C(=O)NC2CC2)C3(C)C)CCCCC1` showed a Ki of 12 nM. Next, `CC(C)(C)OC(=O)N[C@H](C(=O)N1CC2CCCC2[C@H]1C(=O)NC(CC1CC1)C(=O)C(N)=O)C1CCCCC1` (stereo partly drawn): 14 nM.

`CCCC[C@H](NC(=O)[C@@H]1[C@@H]2[C@H](CN1C(=O)[C@@H](NC(=O)NC1([C@H]3CCCS3(=O)=O)CCCCC1)C1(C)CCCCC1)C2(C)C)C(=O)C(=O)NC1CC1`: the Ki stood at 20 nM. The Ki values of the last two compounds are within 1.5-fold of each other.

Compound `CCCC(NC(=O)[C@H](CC(C)C)NC(=O)C(NC(=O)OC(C)(C)C)C(C)(C)C)C(=O)C(N)=O` (stereo partly drawn) registered a Ki of 20 nM. This counts as double-digit nanomolar. Next, `CC(C)(C)OC(=O)N[C@H](C(=O)N1c2ccccc2C[C@H]1C(=O)NC(CC1CC1)C(=O)C(N)=O)C1CCCCC1` (stereo partly drawn): 20 nM. Compound `C=CCNC(=O)C(=O)C(CC1CC1)NC(=O)[C@@H]1[C@@H]2[C@H](CN1C(=O)[C@@H](NC(=O)N[C@H](CN1C(=O)CC(C)(C)CC1=O)C(C)(C)C)C(C)(C)O)C2(C)C` (stereo partly drawn) had a Ki of 20 nM.

Compound `CC1([C@H](NC(=O)NC2(C3CCCS3(=O)=O)CCCCC2)C(=O)N2C[C@H]3[C@@H]([C@H]2C(=O)N[C@@H](CCC2CC2)C(=O)C(=O)NC2CC2)C3(C)C)CCCCC1` (stereo partly drawn) gave a Ki of 24 nM. The Ki values of the last two compounds are within 1.5-fold of each other. Next, `CC(C)C[C@@H](C(=O)NC(CC1CC1)C(=O)C(N)=O)C1CCCCCC[C@H](NC(=O)OC(C)(C)C)C1=O` (stereo partly drawn): 25 nM. Consider `CCC[C@H](NC(=O)[C@@H]1[C@@H]2[C@H](CN1C(=O)[C@@H](NC(=O)NC1([C@H]3CCCS3(=O)=O)CCCCC1)C1(C)CCCCC1)C2(C)C)C(=O)C(=O)NC1CC1`, for which the Ki came to 31 nM. Next, `COc1ccc2c(O[C@@H]3C[C@H]4C(=O)N[C@]5(C(=O)O)CC5/C=C\CCCCC[C@H](NC(=O)OC5CCCC5)C(=O)N4C3)cc(-c3csc(NC(C)C)n3)nc2c1` (stereo partly drawn): 38 nM; `CCCC[C@H](NC(=O)[C@@H]1[C@@H]2[C@H](CN1C(=O)[C@@H](NC(=O)NC1(CS(=O)(=O)C(C)C)CCCCC1)C(C)(C)C)C2(C)C)C(=O)C(=O)NC1CC1`: 38 nM; `CCCC[C@H](NC(=O)[C@@H]1[C@@H]2[C@H](CN1C(=O)[C@@H](NC(=O)NC1([C@H]3CCN(C)S3(=O)=O)CCCCC1)C(C)(C)C)C2(C)C)C(=O)C(=O)NC1CC1`: 40 nM.

Compound `CC1(C)C2CN(C(=O)[C@@H](NC(=O)NC3CCCCC3)C(C)(C)C)[C@H](C(=O)NC(CC3CCC3)C(=O)C(N)=O)C21` (stereo partly drawn) showed a Ki of 63 nM. The figure for `CC(C)(C)NC(=O)N[C@H](C(=O)N1C[C@H]2[C@@H]([C@H]1C(=O)NC(CC1CCC1)C(=O)C(N)=O)C2(C)C)C(C)(C)C` (stereo partly drawn) is 76 nM. `CCCC[C@H](NC(=O)[C@@H]1[C@@H]2[C@H](CN1C(=O)[C@@H](NC(=O)NC1([C@H]3CCCS3(=O)=O)CCCCC1)C(C)(C)C)C2(C)C)C(=O)C(=O)NC1CC1`: the affinity corresponds to a Ki of 80 nM. For `CCCC(NC(=O)[C@@H]1Cc2ccc3cc2CN1C(=O)[C@H](C1CCCCC1)NC(=O)CCCCCCO3)C(=O)C(N)=O` (stereo partly drawn), the Ki worked out at 80 nM. `CN(C)C(=O)[C@@H](NC(=O)CNC(=O)C(=O)C(CC1CC1)NC(=O)[C@@H]1[C@H]2CC(C)(C)O[C@H]2CN1C(=O)[C@@H](NC(=O)OC(C)(C)C)C1CCCCC1)c1ccccc1` (stereo partly drawn) showed a Ki of 97 nM. With `CCC[C@H](NC(=O)[C@@H]1[C@H]2CCC[C@H]2CN1C(=O)[C@@H](NC(=O)[C@@H](NC(=O)c1cnccn1)C1CCCCC1)C(C)(C)C)C(=O)C(=O)NC1CC1`, the affinity, expressed as Ki, was 104 nM.

On to `CC(C)C[C@@H](C(=O)NC(CC1CCC1)C(=O)C(N)=O)N1CCCCCC[C@H](NC(=O)N[C@@H](C(=O)OC(C)C)C(C)(C)C)C1=O` (stereo partly drawn), for which the affinity, expressed as Ki, was 120 nM. `CC1C[C@H]2CN(C(=O)[C@@H](NC(=O)OC(C)(C)C)C3CCCCC3)[C@H](C(=O)NC(CC3CC3)C(=O)C(=O)NCC(=O)N[C@H](C(=O)N(C)C)c3ccccc3)[C@H]2C1` (stereo partly drawn): the Ki is 120 nM. The figure for `CN(C[C@@H](NC(=O)N[C@H](C(=O)N1C[C@H](OC(C)(C)C)C[C@H]1C(=O)NC(CC1CCC1)C(=O)C(N)=O)C1CCCCC1)C(C)(C)C)S(C)(=O)=O` (stereo partly drawn) is 110 nM.

The compound `C=CCNC(=O)C(=O)C(CCC)NC(=O)[C@@H]1[C@@H]2[C@H](CN1C(=O)[C@@H](NC(=O)N[C@H](CN1CCCCC1=O)C(C)(C)C)C1Cc3ccccc3C1)C2(C)C` (stereo partly drawn) registered an inhibition constant (Ki) of 140 nM. `CCCNC(=O)C(=O)[C@@H]1CCCCCCCCC[C@H](NC(=O)NC2(CS(=O)(=O)C(C)(C)C)CCCCC2)C(=O)N2C[C@H]3[C@@H]([C@H]2C(=O)N1)C3(C)C`: affinity was put at a Ki of 330 nM. With `C=CCNC(=O)C(=O)[C@@H]1CCCCCCCCC[C@H](NC(=O)N[C@H](CN(C)S(=O)(=O)N(C)C)C(C)(C)C)C(=O)N2C[C@H]3[C@@H]([C@H]2C(=O)N1)C3(C)C`, the Ki amounted to 370 nM. The compound `C=CCNC(=O)C(=O)C(CC1CC1)NC(=O)[C@@H]1[C@H]2C(c3ccccc3)[C@H]2CN1C(=O)[C@@H](NC(=O)NC1(CS(=O)(=O)C(C)(C)C)CCCCC1)C(C)(C)C` (stereo partly drawn) displayed a Ki of 350 nM. This Ki and that of the compound before are within 1.5-fold of each other. `CN(C[C@@H](NC(=O)N[C@H](C(=O)N1C[C@H]2[C@@H]([C@H]1C(=O)N[C@@H](CC(F)F)C(=O)N[C@@H]1C[C@@H]1c1ccccc1)C2(C)C)C(C)(C)C)C(C)(C)C)S(C)(=O)=O` gave a Ki of 530 nM. Against the preceding compound, the Ki is about 1.5-fold higher. The figure for `CC1(C)CC(=O)N(C[C@@H](NC(=O)N[C@H]2CCCCCCCCC[C@@H](C(=O)C(=O)NC3CC3)NC(=O)[C@@H]3[C@@H]4[C@H](CN3C2=O)C4(C)C)C(C)(C)C)C(=O)C1` is 250 nM; for `C=CCNC(=O)C(=O)[C@@H]1CCCCCCCCC[C@H](NC(=O)N[C@H](CN2CCC(C)(C)CC2=O)C(C)(C)C)C(=O)N2C[C@H]3[C@@H]([C@H]2C(=O)N1)C3(C)C` it is 366 nM. With `C=CCNC(=O)C(=O)[C@@H]1CCCCCCCCC[C@H](NC(=O)NC2(CS(=O)(=O)C(C)(C)CC)CCCCC2)C(=O)N2C[C@H]3[C@@H]([C@H]2C(=O)N1)C3(C)C`, the Ki stood at 230 nM. Consider `CC1(C)[C@@H]2[C@H]3C(=O)N[C@H](C(=O)C(=O)NC4CC4)CCCCCCCCC[C@H](NC(=O)NC4(C5CCCS5(=O)=O)CCCCC4)C(=O)N3C[C@@H]21` (stereo partly drawn), for which affinity was put at a Ki of 110 nM.
